The numbers were not newly measured in publication PMC5513211, “PA-6 inhibits inward rectifier currents carried by V93I and D172N gain-of-function KIR2.1 channels, but increases channel protein expression” (Journal of Biomedical Science, 2017), which cites them from elsewhere.

Each structure is given as a SMILES string. pIC50: −log10 of the molar value.

Broadly, the pIC50 is the IC50 on a negative log10 scale, so that one unit is a factor of ten.

Data set [1] relates to Kv7.1 channel, V307L. The settings on record: cited from earlier work.
Data set [2] deals with D172N KIR2.1. The settings on record: read-out: IC50 (sensitivity for chloroquine); whole cell mode; cited from earlier work.
The test system of data set [3] is WT KIR2.1. The settings on record: read-out: IC50 (sensitivity for chloroquine); whole cell mode; cited from earlier work.
The test system of data set [4] is Kv11.1 (hERG) channel, WT and N558K. The settings on record: N558K less sensitive than WT; cited from earlier work.

Take `CCS(=O)(=O)N(C)[C@H]1c2cc(C#N)ccc2OC(C)(C)[C@@H]1O` [Chromanol293B]: the “Increase of IC50 value by V307L mutation” value in data set [1] (V307L versus WT Kv7.1) is 7 fold.

In the case of `CCN(CC)CCCC(C)Nc1ccnc2cc(Cl)ccc12` (centres unmarked) [chloroquine], the negative-log IC50 (pIC50) in data set [2] is 5.48 to 5.92; in data set [3], 5.62 to 5.85.

`OC(c1cc(C(F)(F)F)nc2c(C(F)(F)F)cccc12)C1CCCCN1` (centres unmarked) [mefloquine]: the “Sensitivity of V307L Kv7.1 versus WT variant” value in data set [1] is reported as “equally sensitive”.

For the compound `CC[C@H]1CN2CC[C@H]1C[C@@H]2[C@@H](O)c1ccnc2ccc(OC)cc12` [hydroquinidine], the “Difference in IC50 values for WT and N558K Kv11.1 channels” value in data set [4] is reported as 3.5 fold.
